These results are taken from ChEMBL document CHEMBL1201862, “PubChem BioAssay data set” (2004).

For test [1], the target named is Procathepsin L (Homo sapiens, UniProt P07711).
For test [2], the target named is Aspartyl aminopeptidase (Plasmodium falciparum 3D7, UniProt Q8I2J3).
The test system of test [3] is H9c2. Kind of test: cells. Format: functional, cell-based. To be noted: Rattus norvegicus, H9c2, Myocardium.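 Also: confirmatory concentration-response retest of ultra-high-throughput screening hits for modulation of myocardial damage; cell death induced by hydrogen peroxide oxidative stress; compound pretreatment for 60 min then peroxide exposure for 2 h; potency is for protecting the cells against peroxide damage rather than for killing them.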
For test [4], the target named is T1, Alkaline phosphatase, tissue-nonspecific isozyme (Homo sapiens, UniProt P05186).
T1 sequence (P05186 whole entry): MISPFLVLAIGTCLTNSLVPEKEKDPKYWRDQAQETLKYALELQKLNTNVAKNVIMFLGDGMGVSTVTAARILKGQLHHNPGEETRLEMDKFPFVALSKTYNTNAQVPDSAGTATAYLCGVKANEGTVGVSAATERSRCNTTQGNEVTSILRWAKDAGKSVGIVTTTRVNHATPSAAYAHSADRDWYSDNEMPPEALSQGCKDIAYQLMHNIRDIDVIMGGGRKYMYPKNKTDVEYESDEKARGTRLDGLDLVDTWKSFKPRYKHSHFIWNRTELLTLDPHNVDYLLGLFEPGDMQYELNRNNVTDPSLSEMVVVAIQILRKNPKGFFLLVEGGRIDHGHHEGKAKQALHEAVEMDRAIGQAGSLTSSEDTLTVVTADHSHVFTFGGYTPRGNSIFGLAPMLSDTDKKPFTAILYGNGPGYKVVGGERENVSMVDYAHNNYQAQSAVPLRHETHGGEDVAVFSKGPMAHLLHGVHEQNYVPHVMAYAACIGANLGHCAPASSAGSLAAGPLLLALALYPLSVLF

A short description of test [5]: A Cell Based Secondary Assay To Explore Cytotoxicity of Compounds that Sensitize Mycobacterium Tuberculosis to Beta-Lactam Antibiotics. Format: functional.
The nature of test [6]: A Cell Based Assay for the Identification of Probe candidate Compounds with Anti- Venezuelan Equine Encephalitis virus. [Related pubchem assays: 2409, 2419, 1621, 2238, 2405, 2024, 2065, 2402, 2414, 1635, 1650, 2244 ]. It counts as functional.
The test system of test [7] is Vero. Kind of test: Vero cell viability after compound exposure – synthesized analogs, set II, cytotoxicity control for West Nile virus antiviral project, SAR follow-up (AID 2402). It counts as functional. To be noted: Chlorocebus sabaeus.
Test [8] relates to Vero. Kind of test: Vero 76 cell viability after compound exposure – Vero 76 cells, synthesized analogs, cytotoxicity control for West Nile virus antiviral project, SAR follow-up (AID 2414). It counts as functional. As to conditions: Chlorocebus sabaeus.
Test [9] concerns INS1. Kind of test: INS-1E survival protection against cytokine death – cell-based, luminescence, retest, dose response (AID 449756).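 Also: cell death triggered by IL-1 beta plus TNF-alpha plus IFN-gamma mixture; protective hits raise ATP signal compared with cytokine alone wells.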 Format: functional. As to conditions: Rattus norvegicus.
In test [10] the target is Oxytocin receptor (Homo sapiens, UniProt P30559). Kind of test: Fluorescence-based cell-based high throughput dose response assay for agonists of the Oxytocin Receptor (OXTR). [Related pubchem assays: 2435 (Primary screen (OXTR agonists in singlicate)), 434991 (Counterscreen (V1R agonists in triplicate)), 2482 (Summary (OXTR agonists)), 434963 (Confirmation screen (OXTR agonists in triplicate))]. It counts as functional. (In general: A counterscreen serves to expose hits that act by an unwanted route or on another target.)

Test [11] is described as follows: viability of PTEN-deleted HCT116 cells – cell-based, HCT116 PTEN knockout, dose response (AID 1047).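 Also: HCT116 colon tumor cells with PTEN knocked out; cells exposed to compound for 60 hours before readout; potency for loss of cell viability measured by luminescence.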 It counts as functional.
Test [12] addresses Vasopressin V1a receptor (Homo sapiens, UniProt P37288). Kind of test: Counterscreen for Oxytocin Receptor (OXTR) agonists: Fluorescence-based cell-based high throughput dose response assay to identify agonists of the vasopressin 1 receptor (V1R). [Related pubchem assays: 2435 (Primary screen (OXTR agonists in singlicate)), 434991 (Counterscreen (V1R agonists in triplicate)), 2482 (Summary (OXTR agonists)) …. Format: functional.

Test [13] in a line: viability of HCT116 lacking mutant beta-catenin – cell-based, human colon tumor, dose response (AID 1045).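 Also: HCT116 colon tumor cells with beta catenin knocked out; cells exposed to compound for 60 hours.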 Format: functional.
Test [14] in a line: Luminescence Cell-Based Dose Retest to Confirm Inhibitors of Cancer Stem Cells. [Related pubchem assays (depositor defined):AID2717, AID2721]. Format: functional. To be noted: Homo sapiens.
Test [15] addresses Eukaryotic translation initiation factor 4H (Homo sapiens, UniProt Q15056). Kind of test: eIF4H binding inhibition – biochemical, uHTS, fluorescence polarization, translation initiation inhibitor project, primary screen (AID 2012). In general terms: Polarisation of emitted light reports the rotation of a fluorescent probe.
In test [16] the target is Polyadenylate-binding protein 1 (Homo sapiens, UniProt P11940). Kind of test: blockers of PABP interaction with poly(A) – biochemical, fluorescence polarization, […] (AID 2014).
Test [17] has as its target Cytochrome P450 2C9 (Homo sapiens, UniProt P11712). As to conditions: Potency.
Test [18] concerns the target Cytochrome P450 3A4 (Homo sapiens, UniProt P08684). As to conditions: Potency.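 Also: confirmatory qHTS run detecting inhibitors and substrates of CYP3A4.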

The structures appear in SMILES notation. The source made the active and inactive calls. Bounds are passed on as bounds.

Cytochrome P450 3A4, sequence (P08684 whole entry): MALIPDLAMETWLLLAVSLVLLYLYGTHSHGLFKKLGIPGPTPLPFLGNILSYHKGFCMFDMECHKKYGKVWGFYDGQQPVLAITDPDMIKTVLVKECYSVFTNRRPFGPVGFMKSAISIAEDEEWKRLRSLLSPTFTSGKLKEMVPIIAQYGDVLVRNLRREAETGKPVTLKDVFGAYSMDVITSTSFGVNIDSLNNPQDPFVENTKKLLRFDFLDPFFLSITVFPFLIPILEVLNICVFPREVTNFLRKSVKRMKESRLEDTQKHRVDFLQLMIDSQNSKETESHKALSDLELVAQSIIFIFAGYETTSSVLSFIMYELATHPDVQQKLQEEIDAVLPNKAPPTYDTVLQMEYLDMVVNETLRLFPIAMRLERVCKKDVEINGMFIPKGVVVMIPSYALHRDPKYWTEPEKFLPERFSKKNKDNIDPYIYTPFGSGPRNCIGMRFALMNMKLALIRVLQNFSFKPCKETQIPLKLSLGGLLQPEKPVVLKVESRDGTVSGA
Procathepsin L, sequence (P07711 whole entry): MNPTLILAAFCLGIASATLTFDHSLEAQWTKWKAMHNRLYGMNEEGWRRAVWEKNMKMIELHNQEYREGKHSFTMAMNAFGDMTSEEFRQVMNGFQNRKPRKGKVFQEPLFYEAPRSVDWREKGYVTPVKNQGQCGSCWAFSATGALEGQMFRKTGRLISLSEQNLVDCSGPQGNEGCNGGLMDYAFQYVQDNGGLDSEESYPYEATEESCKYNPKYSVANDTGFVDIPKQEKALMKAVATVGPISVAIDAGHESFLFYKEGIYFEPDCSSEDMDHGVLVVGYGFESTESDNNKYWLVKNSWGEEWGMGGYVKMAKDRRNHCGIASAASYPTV
Cytochrome P450 2C9, sequence (P11712 whole entry): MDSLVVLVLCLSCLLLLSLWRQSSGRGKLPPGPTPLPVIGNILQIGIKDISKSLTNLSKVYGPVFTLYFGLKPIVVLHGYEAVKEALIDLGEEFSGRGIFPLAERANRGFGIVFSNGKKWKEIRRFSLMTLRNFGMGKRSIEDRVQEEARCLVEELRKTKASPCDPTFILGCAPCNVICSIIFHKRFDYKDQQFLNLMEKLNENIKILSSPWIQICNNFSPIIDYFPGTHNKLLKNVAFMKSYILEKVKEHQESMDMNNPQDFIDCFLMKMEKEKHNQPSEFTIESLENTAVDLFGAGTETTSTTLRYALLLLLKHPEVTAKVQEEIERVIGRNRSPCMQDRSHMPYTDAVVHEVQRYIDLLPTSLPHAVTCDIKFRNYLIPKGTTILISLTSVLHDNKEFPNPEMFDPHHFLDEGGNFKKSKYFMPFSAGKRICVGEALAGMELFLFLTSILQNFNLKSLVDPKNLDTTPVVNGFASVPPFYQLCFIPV
Polyadenylate-binding protein 1, sequence (P11940 whole entry): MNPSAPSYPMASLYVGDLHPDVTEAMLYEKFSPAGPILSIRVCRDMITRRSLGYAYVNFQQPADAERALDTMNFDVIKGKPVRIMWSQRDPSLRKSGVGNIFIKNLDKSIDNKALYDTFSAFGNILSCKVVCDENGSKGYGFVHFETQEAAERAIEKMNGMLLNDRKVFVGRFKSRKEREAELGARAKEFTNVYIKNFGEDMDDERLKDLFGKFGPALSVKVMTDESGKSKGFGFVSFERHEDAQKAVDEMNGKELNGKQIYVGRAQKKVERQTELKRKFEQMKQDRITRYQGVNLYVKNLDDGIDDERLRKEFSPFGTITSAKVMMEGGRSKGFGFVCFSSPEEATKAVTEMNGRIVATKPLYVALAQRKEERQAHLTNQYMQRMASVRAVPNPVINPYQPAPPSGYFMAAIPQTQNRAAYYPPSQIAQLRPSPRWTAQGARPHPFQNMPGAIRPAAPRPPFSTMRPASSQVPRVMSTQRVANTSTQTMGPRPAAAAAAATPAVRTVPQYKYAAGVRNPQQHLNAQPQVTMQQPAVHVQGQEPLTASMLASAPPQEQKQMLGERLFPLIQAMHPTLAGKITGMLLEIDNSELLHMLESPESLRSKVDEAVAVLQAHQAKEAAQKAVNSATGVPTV
Aspartyl aminopeptidase, sequence (Q8I2J3 whole entry): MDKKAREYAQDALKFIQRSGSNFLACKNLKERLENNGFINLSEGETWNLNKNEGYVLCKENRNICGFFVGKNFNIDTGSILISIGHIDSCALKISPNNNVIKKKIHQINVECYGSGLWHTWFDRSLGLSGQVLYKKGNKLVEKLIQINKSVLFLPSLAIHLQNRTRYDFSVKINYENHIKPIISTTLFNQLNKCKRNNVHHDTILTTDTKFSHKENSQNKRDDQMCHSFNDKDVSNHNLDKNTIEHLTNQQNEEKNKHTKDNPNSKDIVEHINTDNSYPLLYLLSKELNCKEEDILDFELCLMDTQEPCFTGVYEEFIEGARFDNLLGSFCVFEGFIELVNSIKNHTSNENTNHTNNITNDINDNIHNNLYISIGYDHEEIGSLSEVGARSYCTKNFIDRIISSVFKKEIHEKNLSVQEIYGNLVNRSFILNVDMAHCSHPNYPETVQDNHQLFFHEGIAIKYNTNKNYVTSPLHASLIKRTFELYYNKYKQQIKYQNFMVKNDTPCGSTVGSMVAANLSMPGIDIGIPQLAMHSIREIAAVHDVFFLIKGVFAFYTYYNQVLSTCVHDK
Vasopressin V1a receptor, sequence (P37288 whole entry): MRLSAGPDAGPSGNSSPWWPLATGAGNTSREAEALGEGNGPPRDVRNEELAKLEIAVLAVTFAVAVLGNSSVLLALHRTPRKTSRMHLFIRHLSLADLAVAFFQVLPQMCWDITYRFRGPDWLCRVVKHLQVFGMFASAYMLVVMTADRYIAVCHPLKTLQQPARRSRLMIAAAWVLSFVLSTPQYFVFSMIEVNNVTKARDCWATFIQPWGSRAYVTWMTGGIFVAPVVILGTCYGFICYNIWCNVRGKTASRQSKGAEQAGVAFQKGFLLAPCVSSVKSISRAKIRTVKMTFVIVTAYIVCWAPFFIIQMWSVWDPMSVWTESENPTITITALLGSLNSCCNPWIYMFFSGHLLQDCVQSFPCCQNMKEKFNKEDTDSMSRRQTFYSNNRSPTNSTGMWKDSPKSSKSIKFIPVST
Oxytocin receptor, sequence (P30559 whole entry): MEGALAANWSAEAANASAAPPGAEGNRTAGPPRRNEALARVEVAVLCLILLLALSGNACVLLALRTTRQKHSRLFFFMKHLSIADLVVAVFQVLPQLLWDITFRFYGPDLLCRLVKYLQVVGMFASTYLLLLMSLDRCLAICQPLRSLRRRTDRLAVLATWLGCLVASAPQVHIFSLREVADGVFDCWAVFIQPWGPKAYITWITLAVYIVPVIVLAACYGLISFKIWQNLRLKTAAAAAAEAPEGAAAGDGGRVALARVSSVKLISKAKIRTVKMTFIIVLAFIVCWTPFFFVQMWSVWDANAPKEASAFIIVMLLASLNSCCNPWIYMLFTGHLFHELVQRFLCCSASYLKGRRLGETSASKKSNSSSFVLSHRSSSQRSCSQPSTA

Broadly, the IC50 is the concentration needed to halve the response being measured. Take `CC(C)(C)c1ccc(O)c(/N=C/c2cc(Br)ccc2O)c1`: the IC50 is > 59.6 µM (not active) in [1] and 0.807 µM (active) in [2].

Broadly, the EC50 is the midpoint of the concentration-response curve. For orientation: CC50 means the concentration giving 50% cytotoxicity. For `Cc1ccc(C)c(NC(=O)C(Sc2nc3ccccc3c(=O)n2CC(C)C)c2ccccc2)c1` (stereo not drawn), the IC50 in [3] was 36.3 µM (inactive). Moreover, the EC50 in [4] is on record as > 100 µM (not active). Besides, the CC50 in test [5] is 21.3 µM (active).

Regarding `Cc1cccc2c(=O)n(-c3ccccc3)c(SCC(=O)Nc3ccc4c(c3)CCC4)nc12`, the IC50 in [6] was > 133 µM (active). The CC50 in test [7] is > 200 µM (active); in test [8] it was > 133 µM (active).

Broadly, the AC50 is the concentration at which the activity in the assay is half-maximal. Regarding `COc1ccc(C2NCCc3c2[nH]c2ccccc32)cc1COc1ccc(F)cc1` (stereo not drawn), the values for the AC50 in test [9] and in test [14] were 6.96 µM (active) and 5.89 µM (active), respectively. Besides, the EC50 in test [10] is 26.7 µM (not active); in test [11] it was 6.19 µM (active); in test [12], 20.8 µM (not active); in [13] it was 7.05 µM (active).

On to `C[N+]1(C)[C@@H]2CC[C@H]1CC(OC(=O)C(c1ccccc1)c1ccccc1)C2` (stereo partly drawn), for which the IC50 was > 100 µM (inactive) in test [15] and 6.66 µM (active) in test [16].

As to `COc1cc2c(cc1O)C[C@H]1c3c(cc(OC)c(O)c3-2)CCN1C` [ISOBOLDINE], the results for the AC50 in test [17] and in test [18] were 25.1 µM (inconclusive) and 20 µM (inconclusive), respectively.
